In US20210255193A1, “LYSINE REACTIVE PROBES AND USES THEREOF” (The Scripps Research Institute, priority 2017, published 2021):
Blank lines part the entries; values can stand above or below the molecule they belong to.

Key:
Assay in all cases: competitive isoTOP-ABPP
Assay type in all cases: binding
[1] = biological target: T1, ACBD3 Golgi resident protein GCP60 (Homo sapiens, UniProt Q9H3P7); set-up: key to isoTOP-ABPP reactivity ratio at lysine Q9H3P7_K117: R = MS1 peak area ratio, DMSO (heavy) / compound-treated (light); conditions: for isoTOP-ABPP ratio (R) at liganded lysine Q9H3P7_K117: sol, 231
T1 construct: isoTOP-ABPP experiments performed in cell lysates (in vitro); endogenous in cells; host or cells: soluble proteome of human cancer cell lines (MDA-MB-231; Ramos and Jurkat also prepared)
T1 sequence (Q9H3P7 1-528): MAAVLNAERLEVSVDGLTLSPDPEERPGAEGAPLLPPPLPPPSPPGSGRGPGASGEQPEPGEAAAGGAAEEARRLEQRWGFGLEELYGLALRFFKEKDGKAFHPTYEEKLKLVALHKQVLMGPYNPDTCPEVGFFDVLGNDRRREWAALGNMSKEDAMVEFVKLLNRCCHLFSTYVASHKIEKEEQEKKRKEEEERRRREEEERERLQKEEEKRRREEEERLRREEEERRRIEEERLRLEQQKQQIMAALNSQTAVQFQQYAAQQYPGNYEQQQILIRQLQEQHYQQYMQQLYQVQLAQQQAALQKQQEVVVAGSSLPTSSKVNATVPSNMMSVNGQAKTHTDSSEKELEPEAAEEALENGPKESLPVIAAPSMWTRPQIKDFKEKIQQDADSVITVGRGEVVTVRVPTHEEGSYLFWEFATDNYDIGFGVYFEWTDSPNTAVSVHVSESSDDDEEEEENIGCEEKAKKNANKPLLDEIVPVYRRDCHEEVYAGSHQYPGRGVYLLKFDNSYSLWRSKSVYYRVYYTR
Experimental: (§1) In vitro covalent fragment treatment for isoTOP-ABPP. All compounds were made up as solutions in DMSO (100×) and were used at a final concentration of 50 μM for activated esters and 100 μM for guanidinylating agents. For each profiling sample, 0.5 ml of lysate was treated with 5 μl of the 100× compound stock solution or 5 μl of DMSO. Samples were treated with activated esters for
(§2) STP-alkyne labeling and click chemistry. For concentration-dependent reactivity measurements by isoTOP-ABPP, 0.5 ml proteome aliquots were treated at ambient temperature with 1 mM STP-alkyne 1 (5 μl of 100 mM stock in DMSO) and 0.1 mM STP alkyne 1 (5 μl of 10 mM stock in DMSO), respectively. For competitive isoTOP-ABPP, after in vitro fragment treatment (detailed above), the samples were labeled for 1 h at ambient temperature with 0.1 mM STP-alkyne 1 (5 μl of 10 mM stock in DMSO). Samples were conjugated by copper-mediated azide-alkyne cycloaddition (CuAAC) to either the light (1 mM STP-alkyne or fragment treated) or heavy (0.1 mM STP-alkyne or DMSO treated) TEV tags (10 μl of 5 mM stocks in DMSO, final concentration=100 μM) using tris(2-carboxyethyl)phosphine hydrochloride
(§3) R value calculation and processing. The ratios of light and heavy MS1 peaks for each unique peptide were quantified with a CIMAGE software using default parameters (3 MS1 acquisitions per peak and signal to noise threshold set to 2.5). For reactivity measurements by isoTOP-ABPP, the R value was calculated from the ratio of MS1 peak areas, comparing the 1 mM STP alkyne sample (light TEV tag) with the 0.1 mM STP alkyne sample (heavy TEV tag). For competitive isoTOP-ABPP, the R value was calculated from the ratio of MS1 peak areas, comparing the DMSO treated sample (heavy TEV tag) with the compound treated sample (light TEV tag). […] Ratios for unique peptide entries are calculated for each experiment; overlapping peptides with the same modified lysine (for example, different charge states, MudPIT chromatographic steps or tryptic termini) are grouped together and the median ratio is reported as the final ratio (R). The peptide ratios reported by CIMAGE were further filtered to ensure the removal or correction of low-quality ratios in each individual data set. The quality filters applied were the following: removal of half tryptic peptides; for ratios with high standard deviations from the median (90% of the median or above) the lowest ratio was taken instead of the median; removal of peptides with R=20 and only a single MS2 event triggered during the elution of the parent ion; manual annotation of all the peptides with ratios of 20, removing any peptides with low quality elution profiles that remained after the previous curation steps (only done for competitive isoTOP-ABPP).
(§4) Cross-data processing for fragment screening. For compound treated samples, biological replicates of the same condition were averaged, if the standard deviation was below 60% of the mean; otherwise, for lysines with at least one R value <4 for a particular compound, the lowest value of the ratio set was taken. For lysines, where all R values for a particular compound were ≥4, the average was reported. For peptides containing several possible modified lysines, the lysine with the highest number of quantification events was used for analysis and the remaining, redundant peptides were reported as alternative modification sites. Peptides included in the aggregate dataset (those used for further bioinformatics and statistical analyses) were required to have been quantified in 2 experiments for competitive isoTOP-ABPP. Lysines were categorized as liganded, if they had at least one ratio R≥4 (hit fragments). For liganded lysines with R=20 for all liganding events, lysines were required to have been quantified with R=20 in two separate experiments and were further required to have been quantified with R<20 in one additional experiment.

[2] = biological target: T2, ADK Adenosine kinase (Homo sapiens, UniProt P55263); set-up: key to isoTOP-ABPP reactivity ratio at lysine P55263_K88: R = MS1 peak area ratio, DMSO (heavy) / compound-treated (light); conditions: for isoTOP-ABPP ratio (R) at liganded lysine P55263_K88: sol, 231
T2 construct: isoTOP-ABPP experiments performed in cell lysates (in vitro); endogenous in cells; host or cells: soluble proteome of human cancer cell lines (MDA-MB-231, Ramos, Jurkat)
T2 sequence (P55263 whole entry): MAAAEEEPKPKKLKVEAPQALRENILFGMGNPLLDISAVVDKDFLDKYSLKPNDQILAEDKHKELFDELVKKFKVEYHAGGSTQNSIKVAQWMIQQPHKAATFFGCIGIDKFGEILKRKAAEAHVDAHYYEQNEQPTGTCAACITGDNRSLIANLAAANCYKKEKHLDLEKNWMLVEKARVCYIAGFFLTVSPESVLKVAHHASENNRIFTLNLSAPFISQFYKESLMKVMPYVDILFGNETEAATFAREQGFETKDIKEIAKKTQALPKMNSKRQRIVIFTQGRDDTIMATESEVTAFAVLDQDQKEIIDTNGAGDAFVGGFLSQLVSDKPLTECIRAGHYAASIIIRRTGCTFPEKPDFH
Experimental: as §1, §2, §3, §4

[3] = biological target: T3, PSME3 Proteasome activator complex subunit 3 (Homo sapiens, UniProt P61289); set-up: key to isoTOP-ABPP reactivity ratio at lysine P61289_K237: R = MS1 peak area ratio, DMSO (heavy) / compound-treated (light); key to isoTOP-ABPP reactivity ratio at lysine P61289_K12: R = MS1 peak area ratio, DMSO (heavy) / compound-treated (light); capped at 20
T3 construct: isoTOP-ABPP experiments performed in cell lysates (in vitro); endogenous in cells; host or cells: soluble proteome of human cancer cell lines (MDA-MB-231, Ramos, Jurkat)
T3 sequence (P61289 whole entry, one chain of several): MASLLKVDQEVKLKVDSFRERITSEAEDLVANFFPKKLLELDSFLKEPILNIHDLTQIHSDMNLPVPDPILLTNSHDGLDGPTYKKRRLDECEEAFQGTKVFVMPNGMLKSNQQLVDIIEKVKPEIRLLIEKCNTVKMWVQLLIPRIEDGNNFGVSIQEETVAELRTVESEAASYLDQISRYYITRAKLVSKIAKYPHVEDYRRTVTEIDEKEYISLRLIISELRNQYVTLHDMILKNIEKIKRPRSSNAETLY
Experimental: as §1, §2, §3, §4

[4] = biological target: T4, ABHD10 Abhydrolase domain-containing protein 10, mitochondrial (Homo sapiens, UniProt Q9NUJ1); set-up: key to isoTOP-ABPP reactivity ratio at lysine Q9NUJ1_K185: R = MS1 peak area ratio, DMSO (heavy) / compound-treated (light); capped at 20; conditions: for isoTOP-ABPP ratio (R) at liganded lysine Q9NUJ1_K185: sol, 231
T4 construct: endogenous in cells; host or cells: MDA-MB-231 lysate
T4 sequence (Q9NUJ1 53-306): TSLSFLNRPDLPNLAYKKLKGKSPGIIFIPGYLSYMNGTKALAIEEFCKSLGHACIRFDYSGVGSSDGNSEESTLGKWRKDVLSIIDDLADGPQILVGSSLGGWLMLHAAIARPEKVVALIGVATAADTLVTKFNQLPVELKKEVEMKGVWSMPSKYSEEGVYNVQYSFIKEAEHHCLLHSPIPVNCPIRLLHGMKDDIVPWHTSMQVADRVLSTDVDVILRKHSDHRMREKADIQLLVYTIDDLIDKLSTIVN
Experimental: as §1, §2, §3, §4

Compound: Cn1cc(CC(=O)Oc2ccc([N+](=O)[O-])cc2[N+](=O)[O-])c2ccccc21 [fragment 32, 2,4-Dinitrophenyl 2-(1-methyl-1H-indol-3-yl)acetate]
isoTOP-ABPP reactivity ratio at lysine Q9H3P7_K117 ([1]; 50 uM, 231 sol, in vitro): 1.3
isoTOP-ABPP reactivity ratio at lysine P55263_K88 ([2]; 50 uM, 231 sol, in vitro): 1.4
isoTOP-ABPP reactivity ratio at lysine P61289_K12 ([3]; 50 uM, 231 sol, in vitro): 4.7
isoTOP-ABPP reactivity ratio at lysine P61289_K237 ([3]; 50 uM, 231 sol, in vitro): 5.1
isoTOP-ABPP reactivity ratio at lysine Q9NUJ1_K185 ([4]; 50 uM, 231 sol, in vitro): 1.4

Compound: O=C(CCc1ccc2c(c1)OCO2)Oc1ccc([N+](=O)[O-])cc1[N+](=O)[O-] [fragment 45, 2,4-Dinitrophenyl 3-(benzo[d][1,3]dioxol-5-yl)propanoate]
isoTOP-ABPP ratio, lysine Q9H3P7_K117 ([1]; 50 uM_231_sol_in vitro): 1.1
isoTOP-ABPP ratio, lysine P55263_K88 ([2]; 50 uM_231_sol_in vitro): 1.3
isoTOP-ABPP ratio, lysine P61289_K12 ([3]; 50 uM_231_sol_in vitro): 2.0
isoTOP-ABPP ratio, lysine P61289_K237 ([3]; 50 uM_231_sol_in vitro): 1.6
isoTOP-ABPP ratio, lysine Q9NUJ1_K185 ([4]; 50 uM_231_sol_in vitro): 1.2

Compound: O=C(CCc1coc2cc(F)ccc2c1=O)Oc1ccc([N+](=O)[O-])cc1[N+](=O)[O-] [fragment 36, 2,4-Dinitrophenyl 3-(7-fluoro-4-oxo-4H-chromen-3-yl)propanoate]
isoTOP-ABPP ratio (R) at liganded lysine Q9H3P7_K117 ([1]; 50 uM, in vitro): 1.4
isoTOP-ABPP ratio (R) at liganded lysine P55263_K88 ([2]; 50 uM, in vitro): 20.0
isoTOP-ABPP ratio (R) at liganded lysine P61289_K237 ([3]; 50 uM, in vitro, sol, 231): 1.4
isoTOP-ABPP ratio (R) at liganded lysine Q9NUJ1_K185 ([4]; 50 uM, in vitro): 1.4

isoTOP-ABPP ratio, lysine Q9H3P7_K117 ([1]; 100 uM_231_sol_in vitro): 13.9
isoTOP-ABPP ratio, lysine P55263_K88 ([2]; 100 uM_231_sol_in vitro): 1.2
isoTOP-ABPP ratio, lysine P61289_K12 ([3]; 100 uM_231_sol_in vitro): 0.8
isoTOP-ABPP ratio, lysine P61289_K237 ([3]; 100 uM_231_sol_in vitro): 0.8
isoTOP-ABPP ratio, lysine Q9NUJ1_K185 ([4]; 100 uM_231_sol_in vitro): 1.5
Compound: COC(=O)NC(=NC(=O)OCC1c2ccccc2-c2ccccc21)n1cccn1 [fragment 49, N-Methoxycarbonyl-N′-9-fluorenylmethoxycarbonyl-pyrazole-1-carboxamidine]

Compound: O=C(CC12CC3CC(CC(C3)C1)C2)Oc1ccc([N+](=O)[O-])cc1[N+](=O)[O-] [fragment 38, 2,4-Dinitrophenyl 2-(adamantan-1-yl)acetate]
isoTOP-ABPP ratio (R) at liganded lysine Q9H3P7_K117 ([1]; 50 uM, in vitro): 1.0
isoTOP-ABPP ratio (R) at liganded lysine P55263_K88 ([2]; 50 uM, in vitro): 0.9
isoTOP-ABPP ratio (R) at liganded lysine P61289_K12 ([3]; 50 uM, in vitro, sol, 231): 1.9
isoTOP-ABPP ratio (R) at liganded lysine Q9NUJ1_K185 ([4]; 50 uM, in vitro): 3.3

R value (DMSO/fragment) for probe 1 labeling ([1]; Q9H3P7_K117, 50 uM, 231 sol, in vitro): 1.2
R value (DMSO/fragment) for probe 1 labeling ([2]; P55263_K88, 50 uM, 231 sol, in vitro): 0.7
R value (DMSO/fragment) for probe 1 labeling ([3]; P61289_K237, 50 uM, 231 sol, in vitro): 0.5
R value (DMSO/fragment) for probe 1 labeling ([4]; Q9NUJ1_K185, 50 uM, 231 sol, in vitro): 2.0
Compound: COc1cc(CCC(=O)Oc2c(F)c(F)c(F)c(F)c2F)cc(OC)c1OC [fragment 23, Pentafluorophenyl 3-(3,4,5-trimethoxyphenyl)propanoate]
